Results taken from paper PMC12535377, “Synaptic and intrinsic plasticity mediated by CCK-type signaling coordinates behavioral changes during motivational state shifts” (Cell reports, 2025).
pEC50: −log10 of the molar value. Where two headings read alike, the source gives them in different places. Non-standard residues stand in square brackets, D forms with d. Residues, ends and D or L forms follow the SMILES beside them. sY = N[C@@H](Cc1ccc(OS(=O)(=O)O)cc1)C(=O)O

Assays:
apCCKR1 = biological target: T1, apCCKR1 (Aplysia californica, UniProt A0ABM1AF30); test: IP1 accumulation assay, apCCKR1 in CHO-K1 cells; assay type: cell-based; details: CHO-K1 cells transfected with receptor and promiscuous Gαq; for EC50: log[EC50] with negative sign, mean ± SD, at least three independent experiments, SD, read-out: apCCKR1: log[EC50] (converted); for pEC50: average of at least three independent experiments, read-out: apCCKR1: EC50
T1 sequence (A0ABM1AF30 1-261): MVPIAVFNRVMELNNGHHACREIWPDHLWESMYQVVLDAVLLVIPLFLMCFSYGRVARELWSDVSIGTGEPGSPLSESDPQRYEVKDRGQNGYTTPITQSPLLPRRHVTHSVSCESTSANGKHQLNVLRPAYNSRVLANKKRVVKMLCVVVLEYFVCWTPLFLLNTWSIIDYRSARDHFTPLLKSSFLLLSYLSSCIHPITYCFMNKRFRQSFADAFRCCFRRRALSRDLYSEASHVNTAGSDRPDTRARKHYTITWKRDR
Method: We tested receptor activation using the IP1 (inositol monophosphate) accumulation assay that measures IP1 generated in the Gαq pathway (see STAR Methods).
CHO-K1 cells were cultured in F-12K medium (Gibco, 21127–022) with 10% fetal bovine serum at 37°C in 5% CO2. Before transfection, cells were grown in 35 mm diameter tissue culture-treated dishes to 85% confluence. For transfection, 1.5 μg apCCKR plasmids or control plasmids (in pcDNA3.1(+) vector) and 1.5 μg promiscuous Gαq-family protein (in pcDNA3.1(+) vector) were mixed with 200 μL Opti-MEM (Gibco, 11058021), and 8 μL Turbofect (Thermo Fisher Scientific, R0531). This promiscuous Gαq protein contains substitutions to increase promiscuity,[148] and could bind to most GPCRs, ensuring an IP1 response when a potential ligand binds to its specific GPCR, irrespective of the GPCR’s normal association with any specific Gα proteins. The DNA mixture was incubated at room temperature for 15 min and then added dropwise to the cells in F-12K medium with 10% FBS (no antibiotics), followed by incubation at 37°C in 5% CO2 overnight. The next day, cells were detached using trypsin and reseeded in white 96-well half-area tissue culture-treated plates (Corning, 3688) at a density of 20,000 cells per well in F-12K and 10% FBS, and incubated at 37°C in 5% CO2 overnight. Activation of putative apCCK or related receptor was detected by monitoring IP1 accumulation using IPOne Detection Kit (Cisbio, 62IPAPEB), as previously described.[64],[65],[141],[149],[150]
Dose-response curves and bar graphs for experimental data were plotted using Prism software (GraphPad version 8). Data are presented as mean ± SEM of at least three independent experiments, except that LogEC50 values reported in the main text are the mean ± standard deviation (SD) from at least three independent experiments. Statistical tests were performed using Prism software. They included Student’s t-test, one-way or two-way ANOVA, as appropriate. […] Electrophysiological recordings were digitized online using AxoScope software version 10.7 (Molecular Devices, LLC, Sunnyvale, CA) and were plotted by CorelDraw version 2018 (Corel Corp., Ottawa, Canada).

[1] = tested on: CBI-2-elicited feeding motor programs; test: CBI-2-elicited feeding motor programs in isolated cerebral and buccal ganglia; parameters: species or system Aplysia californica; details: for Protraction duration of CBI-2 programs: 10^-6 M and 10^-5 M tested; for B8 activity (frequency) during retraction: CBI-2 programs, 10^-6 M and 10^-5 M; for Feeding program effect, summary grade: Table S1 summary in words
Method: To explore the neural basis of the behavioral effects of apCCKs, we examined their modulation of feeding-motor programs in isolated ganglia. All eight forms of apCCKs were tested on programs induced by CBI-2, a command-like interneuron that is active during food-elicited feeding behavior[56] and provides potent excitatory inputs to buccal central pattern generator (CPG) interneurons,[54],[77] orchestrating ingestive motor programs (Figure S23A). Stable single-cycle motor programs were evoked by stimulating CBI-2 at 8–10 Hz throughout the protraction phase with a 90-s intertrial interval. Two concentrations, 10^−6 M and 10^−5 M, of apCCKs were tested.
Intracellular and extracellular recordings were made as described previously.[57]–[59],[61],[151] To prevent movements of ganglia caused by myoactive apCCK (especially [sY8]-apCCK1 and [sY6, sY8]-apCCK1) during bath application, we treated the ganglia with 0.8% protease IX for 1–2 min prior to desheathing. Subsequently, ganglia were desheathed, transferred to a recording chamber containing ~1.5 mL of ASW (460 mM NaCl, 10 mM KCl, 11mM CaCl2, 55 mM MgCl2, and 10 mM HEPES, pH 7.6), continuously perfused at 0.3 mL/min, and maintained at 14°C–17°C. The experiments examining the effects of apCCKs on excitability of B20/B34/B61/62/B65/B64 neurons were performed in a high divalent saline (368 mM NaCl, 8 mM KCl, 13.8 mM CaCl2, 115 mM MgCl2, and 10 mM HEPES, pH 7.6), which increases the spiking threshold of neurons and therefore curtails polysynaptic influences. Intracellular recordings were obtained using 5–10 MΩ sharp microelectrodes filled with an electrolyte (0.6 M K2SO4 plus 60 mM KCl). Extracellular recordings were acquired from polyethylene suction electrodes. Grass S88 and WPI Pulsemaster A300 stimulators were used to provide timing signals for intracellular and extracellular stimulation. To determine the effects of various forms of apCCKs on Aplysia feeding programs, we performed experiments with the cerebral and buccal ganglia. Freshly made apCCK solution in ASW was perfused into the recording chamber. Feeding-motor programs were elicited by stimulation of command-like neuron CBI-2 at 8–10 Hz or stimulation of the EN at 2 Hz, 3 ms, 15 V, and were monitored by bursting activity of the I2 nerve of the buccal ganglion.[58],[59],[61] Typically, we recorded from motor neuron B8, and one interneuron, e.g., B40 or B20. To determine effects of apCCKs on synaptic strength, we stimulated presynaptic neuron, CBI-2, B34 (plus 1 nA current) or B65 at 10 Hz for 2 s for several trials and waited 1 min between each trial. The stimulation duration for each trial was set at 2 s because this allows the expression of synaptic facilitation without evoking too many spikes. Typically, the amplitude of the last EPSP at each concentration of peptides was quantified unless otherwise stated.

Compound | EC50 (apCCKR1) | Protraction duration of CBI-2 programs [1] | B8 activity (frequency) during retraction [1] | Feeding program effect, summary grade [1] | pEC50 (apCCKR1)
CC[C@H](C)[C@H](NC(=O)CNC(=O)[C@H](Cc1ccc(OS(=O)(=O)O)cc1)NC(=O)[C@H](CC(=O)O)NC(=O)CNC(=O)[C@H](Cc1ccc(OS(=O)(=O)O)cc1)NC(=O)[C@@H](N)CO)C(=O)NCC(=O)NCC(=O)NCC(=O)N[C@@H](CCCNC(=N)N)C(=O)N[C@@H](Cc1ccccc1)C(N)=O [[sY2, sY5]-apCCK2] (H-S[sY]GD[sY]GIGGGRF-NH2) | 331 nM | shortened | reduced | Weak | 
CC[C@H](C)[C@H](NC(=O)CNC(=O)[C@H](Cc1ccc(O)cc1)NC(=O)[C@H](CC(=O)O)NC(=O)CNC(=O)[C@H](Cc1ccc(OS(=O)(=O)O)cc1)NC(=O)[C@@H](N)CO)C(=O)NCC(=O)NCC(=O)NCC(=O)N[C@@H](CCCNC(=N)N)C(=O)N[C@@H](Cc1ccccc1)C(N)=O [[sY2]-apCCK2] (H-S[sY]GDYGIGGGRF-NH2) |  |  |  | No effect | < 5.00
CC[C@H](C)[C@H](NC(=O)CNC(=O)[C@H](Cc1ccc(OS(=O)(=O)O)cc1)NC(=O)[C@H](CC(=O)O)NC(=O)CNC(=O)[C@H](Cc1ccc(O)cc1)NC(=O)[C@@H](N)CO)C(=O)NCC(=O)NCC(=O)NCC(=O)N[C@@H](CCCNC(=N)N)C(=O)N[C@@H](Cc1ccccc1)C(N)=O [[sY5]-apCCK2] (H-SYGD[sY]GIGGGRF-NH2) | 851 nM | shortened | reduced | Moderate | 
H-SYGDYGIGGGRF-NH2 [apCCK2] |  |  |  | No effect | < 5.00
